{"source": "patent US20190375708A1", "about": "(VenatoRx Pharmaceuticals, Inc., priority 2018, published 2019)", "key": {"[1]": {"system": "HBV replication in HepAD38 cells", "experiment": "Anti-HBV replication assay in HepAD38 cells (QPCR of extracellular HBV DNA)", "format": "cell-based, HBV (genotype D, serotype ayw)", "settings": "Hepatitis B virus, 168 h, 7 days incubation, extracellular HBV DNA by QPCR, read-out: Anti-HBV EC50", "outline": "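EC50 values reflect 50% reduction of extracellular HBV DNA, measured by QPCR after 7-day treatment of tetracycline-deprived HepAD38 cells with compound […].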"}, "[2]": {"experiment": "In vitro cytotoxicity assay (MTT cell viability) in HepG2 cells", "format": "cell-based, human", "settings": "human", "outline": "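Viability measured by MTT conversion, absorbance at 492 nm, as percent of vehicle-treated wells. Compounds spanned 30 μM to 1.0 nM in half-log steps over a 7-day exposure of parental HepG2 cells; CC50 derived by 4-parameter curve fit.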"}}}
{"smiles": "Cc1cc(NC(=O)c2c(C)c(C(=O)C(=O)Nc3ccc4c(c3)COB4O)n(C)c2C)ccc1F", "note": "[Example 678, N-(4-fluoro-3-methylphenyl)-5-(2-((1-hydroxy-1,3-dihydrobenzo[c][1,2]oxaborol-5-yl)amino)-2-oxoacetyl)-1,2,4-trimethyl-1H-pyrrole-3-carboxamide]", "values": [{"measurement": "EC50", "setting": "[1]", "value": "< 50", "unit": "nM"}, {"measurement": "CC50 at 7 days", "setting": "[2]", "value": "5000 to 30000", "unit": "nM"}]}
{"smiles": "Cc1cc(NC(=O)c2c(C)c(C(=O)C(=O)N[C@H](C)C(F)(F)F)n3c2CCCC3)cnc1F", "note": "[Example 469, (R)-N-(6-fluoro-5-methylpyridin-3-yl)-2-methyl-3-(2-oxo-2-((1,1,1-trifluoropropan-2-yl)amino)acetyl)-5,6,7,8-tetrahydroindolizine-1-carboxamide]", "values": [{"measurement": "EC50", "setting": "[1]", "value": "500 to 1000", "unit": "nM"}, {"measurement": "CC50 at 7 days", "setting": "[2]", "value": "5000 to 30000", "unit": "nM"}]}
{"smiles": "CC(C)(C)NC(=O)C(=O)c1cc(C(=O)Nc2ccc(F)c(F)c2)c2n1CCCC2", "note": "[Example 398, 3-(2-(tert-butylamino)-2-oxoacetyl)-N-(3,4-difluorophenyl)-5,6,7,8-tetrahydroindolizine-1-carboxamide]", "values": [{"measurement": "EC50", "setting": "[1]", "value": "50 to 499", "unit": "nM"}, {"measurement": "CC50 at 7 days", "setting": "[2]", "value": "> 30000", "unit": "nM"}]}
{"smiles": "Cc1cc(NC(=O)c2c(C)c(C(=O)C(=O)N3CCC(F)(F)C3)n(C)c2C)cnc1F", "note": "[Example 192, 5-(2-(3,3-difluoropyrrolidin-1-yl)-2-oxoacetyl)-N-(6-fluoro-5-methylpyridin-3-yl)-1,2,4-trimethyl-1H-pyrrole-3-carboxamide]", "values": [{"measurement": "EC50", "setting": "[1]", "value": "500 to 1000", "unit": "nM"}, {"measurement": "CC50 at 7 days", "setting": "[2]", "value": "> 30000", "unit": "nM"}]}
{"smiles": "Cc1c(C(=O)Nc2ccn(C)n2)c2n(c1C(=O)C(=O)NC1(CO)CCC1)CCCC2", "note": "[Example 748, 3-(2-((1-(hydroxymethyl)cyclobutyl)amino)-2-oxoacetyl)-2-methyl-N-(1-methyl-1H-pyrazol-3-yl)-5,6,7,8-tetrahydroindolizine-1-carboxamide]", "values": [{"measurement": "EC50", "setting": "[1]", "value": "50 to 499", "unit": "nM"}, {"measurement": "CC50 at 7 days", "setting": "[2]", "value": "> 30000", "unit": "nM"}]}
{"smiles": "Cc1cc(NC(=O)c2c(C)c(C(=O)C(=O)NC34CC5CC(CC(C5)C3)C4)n(C)c2C)ccc1F", "note": "[Example 14, 5-(2-(((3s,5s,7s)-adamantan-1-yl)amino)-2-oxoacetyl)-N-(4-fluoro-3-methylphenyl)-1,2,4-trimethyl-1H-pyrrole-3-carboxamide]", "values": [{"measurement": "EC50", "setting": "[1]", "value": "< 50", "unit": "nM"}, {"measurement": "CC50 at 7 days", "setting": "[2]", "value": "5000 to 30000", "unit": "nM"}]}
{"smiles": "CC(=O)N1CCC[C@H](NC(=O)C(=O)c2c(C)c(C(=O)Nc3ccc(F)c(C)c3)c(C)n2C)C1", "note": "[Example 641, (S)-5-(2-((1-acetylpiperidin-3-yl)amino)-2-oxoacetyl)-N-(4-fluoro-3-methylphenyl)-1,2,4-trimethyl-1H-pyrrole-3-carboxamide]", "values": [{"measurement": "EC50", "setting": "[1]", "value": "< 50", "unit": "nM"}, {"measurement": "CC50 at 7 days", "setting": "[2]", "value": "> 30000", "unit": "nM"}]}
{"smiles": "Cc1cc(NC(=O)c2c(C)c(C(=O)C(=O)NC3CC(=O)NC(=O)C3)n(C)c2C)ccc1F", "note": "[Example 610, 5-(2-((2,6-dioxopiperidin-4-yl)amino)-2-oxoacetyl)-N-(4-fluoro-3-methylphenyl)-1,2,4-trimethyl-1H-pyrrole-3-carboxamide]", "values": [{"measurement": "EC50", "setting": "[1]", "value": "< 50", "unit": "nM"}, {"measurement": "CC50 at 7 days", "setting": "[2]", "value": "> 30000", "unit": "nM"}]}
{"smiles": "Cc1cc(NC(=O)c2c(C)c(C(=O)C(=O)NC(C)(C)CN3CCOCC3)n(C)c2C)cnc1F", "note": "[Example 351, N-(6-fluoro-5-methylpyridin-3-yl)-1,2,4-trimethyl-5-(2-((2-methyl-1-morpholiinopropan-2-yl)amino)-2-oxoacetyl)-1H-pyrrole-3-carboxamide]", "values": [{"measurement": "EC50", "setting": "[1]", "value": "50 to 499", "unit": "nM"}, {"measurement": "CC50 at 7 days", "setting": "[2]", "value": "> 30000", "unit": "nM"}]}
{"smiles": "Cc1cc(NC(=O)c2c(C)c(C(=O)C(=O)Nc3ncc(C(F)(F)F)s3)n(C)c2C)ccc1F", "note": "[Example 317, N-(4-fluoro-3-methylphenyl)-1,2,4-trimethyl-5-(2-oxo-2-((5-(trifluoromethyl)thiazol-2-yl)amino)acetyl)-1H-pyrrole-3-carboxamide]", "values": [{"measurement": "EC50", "setting": "[1]", "value": "> 1000", "unit": "nM"}, {"measurement": "CC50 at 7 days", "setting": "[2]", "value": "5000 to 30000", "unit": "nM"}]}
{"smiles": "Cc1cc(NC(=O)c2c(C)c(C(=O)C(=O)NC3CCOCC3)n(C)c2C)ccc1F", "note": "[Example 247, N-(4-fluoro-3-methylphenyl)-1,2,4-trimethyl-5-(2-oxo-2-((tetrahydro-2H-pyran-4-yl)amino)acetyl)-1H-pyrrole-3-carboxamide]", "values": [{"measurement": "EC50", "setting": "[1]", "value": "< 50", "unit": "nM"}, {"measurement": "CC50 at 7 days", "setting": "[2]", "value": "5000 to 30000", "unit": "nM"}]}
{"smiles": "CC(C)(C)NC(=O)C(=O)c1cc(C(=O)Nc2ccc(F)c(C(F)F)c2)c2n1CCCC2", "note": "[Example 400, 3-(2-(tert-butylamino)-2-oxoacetyl)-N-(3-(difluoromethyl)-4-fluorophenyl)-5,6,7,8-tetrahydroindolizine-1-carboxamide]", "values": [{"measurement": "EC50", "setting": "[1]", "value": "50 to 499", "unit": "nM"}, {"measurement": "CC50 at 7 days", "setting": "[2]", "value": "> 30000", "unit": "nM"}]}
{"smiles": "Cc1cc(NC(=O)c2cc(C(=O)C(=O)N[C@@H](C)C(F)(F)F)n3c2CCCC3)ccc1F", "note": "[Example 407, (S)-N-(4-fluoro-3-methylphenyl)-3-(2-oxo-2-((1,1,1-trifluoropropan-2-yl)amino)acetyl)-5,6,7,78-tetrahydroindolizine-1-carboxamide]", "values": [{"measurement": "EC50", "setting": "[1]", "value": "50 to 499", "unit": "nM"}, {"measurement": "CC50 at 7 days", "setting": "[2]", "value": "> 30000", "unit": "nM"}]}
{"smiles": "Cc1c(C(=O)Nc2ccnc(F)c2)c(C)n(C)c1C(=O)C(=O)NC(C)(C)C(F)(F)F", "note": "[Example 172, N-(2-fluoropyridin-4-yl)-1,2,4-trimethyl-5-(2-oxo-2-((1,1,1-trifluoro-2-methylpropan-2-yl)amino)acetyl)-1H-pyrrole-3-carboxamide]", "values": [{"measurement": "EC50", "setting": "[1]", "value": "< 50", "unit": "nM"}, {"measurement": "CC50 at 7 days", "setting": "[2]", "value": "> 30000", "unit": "nM"}]}
{"smiles": "Cc1cc(NC(=O)c2c(C)c(C(=O)C(=O)NC(C)(C)C(F)(F)F)n(CCF)c2C)cnc1F", "note": "[Example 224, N-(6-ffluoro-5-methylpyridin-3-yl)-1-(2-fluoroethyl)-2,4-dimethyl-5-(2-oxo-2-((1,1,1-trifluoro-2-methylpropan-2-yl)amino)acetyl)-1H-pyrrole-3-carboxamide]", "values": [{"measurement": "EC50", "setting": "[1]", "value": "50 to 499", "unit": "nM"}, {"measurement": "CC50 at 7 days", "setting": "[2]", "value": "> 30000", "unit": "nM"}]}
{"smiles": "Cc1cc(NC(=O)c2c(Cl)c(C(=O)C(=O)NC3(CO)CC(F)(F)C3)n3c2CCCC3)ccc1F", "note": "[Example 496, 2-chloro-3-(2-((3,3-difluoro-1-(hydroxymethyl)cyclobutyl)amino)-2-oxoacetyl)-N-(4-fluoro-3-methylphenyl)-5,6,7,8-tetrahydroindolizine-1-carboxamide]", "values": [{"measurement": "EC50", "setting": "[1]", "value": "< 50", "unit": "nM"}, {"measurement": "CC50 at 7 days", "setting": "[2]", "value": "5000 to 30000", "unit": "nM"}]}
{"smiles": "Cc1cc(NC(=O)c2c(C)c(C(=O)C(=O)NC3CC4(CC(O)C4)C3)n(C)c2C)ccc1F", "note": "(stereo not drawn) [Example 598, N-(4-fluoro-3-methylphenyl)-5-(2-((6-hydroxyspiro[3.3]heptan-2-yl)amino)-2-oxoacetyl)-1,2,4-trimethyl-1H-pyrrole-3-carboxamide]", "values": [{"measurement": "EC50", "setting": "[1]", "value": "< 50", "unit": "nM"}, {"measurement": "CC50 at 7 days", "setting": "[2]", "value": "> 30000", "unit": "nM"}]}
{"smiles": "Cc1noc([C@@H](C)NC(=O)C(=O)c2cc(C(=O)Nc3ccc(F)c(C)c3)c3n2CCCC3)n1", "note": "[Example 431, (R)-N-(4-fluoro-3-methylphenyl)-3-(2-((1-(3-methyl-1,2,4-oxadiazol-5-yl)ethyl)amino)-2-oxoacetyl)-5,6,7,8-tetrahydroindolizine-1-carboxamide]", "values": [{"measurement": "EC50", "setting": "[1]", "value": "50 to 499", "unit": "nM"}, {"measurement": "CC50 at 7 days", "setting": "[2]", "value": "> 30000", "unit": "nM"}]}
{"smiles": "Cc1cc(NC(=O)c2c(C)c(C(=O)C(=O)NC(C)(C)CO)n(CCF)c2C)ccc1F", "note": "[Example 116, N-(4-fluoro-3-methylphenyl)-1-(2-fluoroethyl)-5-(2-((1-hydroxy-2-methylpropan-2-yl)amino)-2-oxoacetyl)-2,4-dimethyl-1H-pyrrole-3-carboxamide]", "values": [{"measurement": "EC50", "setting": "[1]", "value": "< 50", "unit": "nM"}, {"measurement": "CC50 at 7 days", "setting": "[2]", "value": "> 30000", "unit": "nM"}]}
{"smiles": "Cc1cc(NC(=O)c2c(C)c(C(=O)C(=O)NC(C)(C)C(=O)OC(C)(C)C)n(C)c2C)ccc1F", "note": "[Example 22, tert-butyl 2-(2-(4-((4-fluoro-3-methylphenyl)carbamoyl)-1,3,5-trimethyl-1H-pyrrol-2-yl)-2-oxoacetamido)-2-methylpropanoate]", "values": [{"measurement": "EC50", "setting": "[1]", "value": "< 50", "unit": "nM"}, {"measurement": "CC50 at 7 days", "setting": "[2]", "value": "> 30000", "unit": "nM"}]}
{"smiles": "Cc1cc(NC(=O)c2cc(C(=O)C(=O)NC3(C(F)(F)F)CCC3)n3c2CCCC3)ccc1F", "note": "[Example 403]", "values": [{"measurement": "EC50", "setting": "[1]", "value": "50 to 499", "unit": "nM"}, {"measurement": "CC50 at 7 days", "setting": "[2]", "value": "> 30000", "unit": "nM"}]}
